Laboratory results from patent publication US10842765B2, “Methods of reducing or preventing oxidation of small dense ldl or membrane polyunsaturated fatty acids” (Amarin Pharmaceuticals Ireland Limited, priority 2016, dated 2020).
Values joined by “and” are separate entries in the source; they are usually repeats but may differ in a detail not shown here. Equal entries are not always repeated.

Assays:
[1] = Glucose-induced membrane lipid peroxidation (LOOH) in lipid vesicles, Example 4; format: biochemical; settings: 1.0 μM; glucose 200 mg/dL; 96 hours
Description: An experiment was conducted to test the ability of EPA to interfere with the effects of high glucose on membrane lipid peroxidation and organization in vesicles enriched with PUFAs. […] Vitamin E (α-tocopherol) was also purchased from Sigma-Aldrich and prepared in ethanol at 1.0 mM (ε=3.06×10^4 M^−1 cm^−1 at 294 nm) just prior to experimental use. […] All test compounds were further diluted in ethanol or aqueous buffer as needed. Glucose was prepared in saline buffer (0.5 mM HEPES, 154 mM NaCl, pH 7.3) at 11.0 mM (200 mg/dL). CHOD-iodide color reagent (stock) was prepared, with slight modification, as described by from El-Saadani et al. (J. […] Samples were shell-dried under nitrogen gas and placed under vacuum for 1 h to remove residual solvent. […] Lipid suspensions were then vortexed for 3 min at ambient temperature to form MLVs. All MLV samples were subjected to time-dependent autoxidation by incubating at 37° C. in an uncovered, shaking water bath. This method allows lipid peroxidation to occur gradually without requiring the use of exogenous initiators. Small aliquots (5-100 μL) of each sample were removed, immediately following MLV preparation (0 hour) and after exposing samples to oxidative conditions for 72 or 96 hour, and combined with 1.0 mL of activated CHOD-iodide color reagent. Aliquot volume was reduced with each successive time point to ensure that spectrophotometric readings were within the optimal adsorption range. Test samples were covered and incubated in darkness at room temperature for at least 4 hr. Sample absorbances were then measured against a CHOD blank at 365 nm using a Beckman DU-640 spectrophotometer. The CHOD colorimetric assay is based on the oxidation of iodide (I^−) by lipid hydroperoxide (LOOH) to form triiodide (I3^−), the quantity of which is directly proportional to the amount of LOOH present in the lipid sample. The molar absorptivity (I3^−) of I3^− is 2.46×10^4 M^−1 cm^−1 at 365 nm. […]

human sdLDL = assay: Copper-induced sdLDL oxidation, TBARS, Example 7; format: biochemical
Description: Samples were prepared at 100 μg/mL sdLDL and incubated with EPA or DHA (10.0 μM each) for 30 minutes prior to initiating lipid oxidation using 10 μM CuSO4. Samples were maintained at 37° C. in a shaking water bath for 1 hour. Lipid oxidation was measured by colorimetric assay of TBARS formation and expressed as molar equivalents of MDA.
An experiment to study the antioxidant effect of EPA in LDL and small dense LDL (“sdLDL”) was performed. LDL and sdLDL were isolated from the plasma of healthy volunteers by iodixanol density gradient ultracentrifugation, and adjusted to a final apolipoprotein concentration of 2 mg/mL. […] Lipid oxidation was initiated with 10 μM CuSO4 and monitored by the colorimetric detection of thiobarbituric acid reactive substances (TBARS) for 1 hr. Vitamin E was also incubated with sample aliquots as a positive control.

HUVECs = assay: NO and ONOO- release from HUVECs exposed to oxLDL (nanosensors), Example 8; format: cell-based, human; settings: ECs exposed to oxLDL
Description: Human umbilical vein endothelial cells (HUVECs) were isolated into primary cultures from female donors by Clonetics (San Diego, Calif.) and purchased as proliferating cells. All cell culture donors were healthy, with no pregnancy or prenatal complications. […] The confluent cells (4 to 5×10^5 cells/35 mm dish) were placed with minimum essential medium containing 3 mM L-arginine and 0.1 mM BH4 [(6R)-5,6,7,8-tetrahydrobiopterin]. Before experimental use, the cells (from second or third passage) were rinsed twice with Tyrode-HEPES buffer with 1.8 mM CaCl2. […]
Oxidation was monitored by the use of measurements of TBARS. […] TBARS concentration was determined as malondialdehyde (MDA) equivalents with the use of an MDA standard curve. […]
The amperometric method (with a response time of 0.1 ms) provides a quantitative signal (current) that is directly proportional to changes (from basal levels) in NO or ONOO^− concentration. […] Basal NO or ONOO^− levels were measured by differential pulse voltammetry in separate experiments. […]
Data are presented as mean±S.D. for (N) separate samples or experiments. Differences between groups were analyzed using the two-tailed, Student t-test (for comparisons between only two groups) or ANOVA followed by Student-Newman-Keuls multiple comparisons post-hoc analysis (for comparisons between three or more groups). […]

[2] = X-ray diffraction of membrane cholesterol domains in POPC/cholesterol model membranes, Example 9; settings: C/P 1.5:1
Description: The fatty acid stock solutions were stored at −20° C. until use.
Samples were shell-dried under nitrogen gas and placed under vacuum for 3 hours to remove residual solvent at room temperature. After desiccation, each sample was resuspended in saline buffer (0.5 mM HEPES, 154 mM NaCl, pH 7.3) to yield a final phospholipid concentration of 2.5 mg/mL. Lipid suspensions were then vortexed for 3 minutes at ambient temperature to form MLVs.
Briefly, a 100 μL aliquot of each MLV preparation (containing 250 μg MLV) was transferred to a Lucite® sedimentation cell fitted with an aluminum foil substrate designed to collect MLVs into a single membrane pellet upon centrifugation.
After centrifugal orientation, sample supernatants were aspirated and aluminum foil substrates, each supporting a single membrane pellet, were removed from the sedimentation cells. Sample pellets were dried for 5-10 minutes at ambient conditions, mounted onto curved glass supports, and placed in hermetically-sealed, brass or glass containers (for immediate analysis or temporary storage, respectively). All x-ray diffraction experiments were conducted at 20° C., 74% relative humidity. The latter was established by exposing membrane samples to saturated solutions of L-(+)-tartaric acid (K2C4H4O6.½H2O) for at least 1 hour prior to experimental analysis. […]

human LDL = assay: Copper-induced unfractionated LDL oxidation, TBARS, Example 7; format: biochemical; settings: beginning at 1.0 μM; 1 hour
[3] = system: rat renal glomerular endothelial cells; assay: NO and ONOO- release ex vivo from glomerular endothelial cells exposed to oxLDL and high glucose, Example 13; format: cell-based; settings: 10.0 μM, 1 hr; oxLDL 11 mg/dL and glucose 300 mg/dL; vs vehicle
Description: Healthy male Wistar Kyoto (WKY) rats, aged 7-9 weeks and weighing 250±20 g, were obtained from inbred colonies (National Institutes of Health, Bethesda, Md.). Animals were housed in a controlled environment that provided food and water ad libitum prior to the study. […] Animals were sacrificed and tissue samples obtained immediately for experimentation. All procedures were conducted in accordance with standard Institutional Animal Care and Use Committee guidelines and conformed to the Guide for the Care and Use of Laboratory Animals published by the US National Institutes of Health.
EPA and DHA were purchased from Sigma-Aldrich (St. Louis, Mo.) and solubilized in ethanol to 1.0 mM under nitrogen atmosphere. […]
LDL was oxidized according to the methods of Huber et al. 16 Briefly, the purified LDL fraction was dialyzed against Tris/NaCl Buffer (50 mM Tris in 0.15 M NaCl, pH 8.0) to remove EDTA. […] LDL oxidation was initiated with 20 μM CuSO4 and monitored spectrophotometrically (234 nm) over a period of 24 hours until complete. […]
Each analyte was measured from amperograms and standard calibration curves collected under maximum current. […] Changes in current (proportional to the molar concentrations of NO or ONOO^− released) were monitored continuously immediately following Cal stimulation. […]

Compound | antioxidant effects, separate treatments [1] | inhibition of sdLDL oxidation as compared to vehicle or DHA (human sdLDL; 10.0 μM, after 4 hours) | inhibition of sdLDL oxidation (TBARS formation) vs vehicle (human sdLDL; each agent 10 μM, 1 hr) | increase in NO release as compared to vehicle (HUVECs) [%] | Relative Chotesterol Domain Peak Intensity ([2]; EPA D/P mole ratio 1:60) | Relative Chotesterol Domain Peak Intensity ([2]; EPA D/P mole ratio 1:90) | inhibition of sdLDL oxidation vs vehicle (human sdLDL; ATM at the highest dose, 1 hr) [%] | inhibition of unfractionated LDL oxidation, dose dependence (human LDL) | reduction in ONOO^− release [3] [%]
CC/C=C\C/C=C\C/C=C\C/C=C\C/C=C\CCCC(=O)O [EPA, cis-5,8,11,14,17-eicosapentaenoic acid] | separate and potent antioxidant effects | significantly inhibited sdLDL oxidation | 93±2% and 92±8% | 45 | 29.5 ± 10.9 | 36.0 ± 3.1 | – | – | –
CC(C)c1c(C(=O)Nc2ccccc2O)c(-c2ccccc2)c(-c2ccc(F)cc2)n1CC[C@@H](O)C[C@@H](O)CC(=O)O [ATM, Ortho (o)-hydroxy atorvastatin metabolite] | separate and potent antioxidant effects | – | – | – | – | – | 90±2 | significant and dose-dependent inhibition of unfractionated LDL oxidation | 25
